Test results: patent publication US7763596B2, “Selective glucocorticoid receptor agonists” (The University of Manchester, priority 2000, dated 2010)

Legend:
CEM-C7A cells = experiment: Apoptosis assay in CEM-C7A cells (viable cell count, MTS); format: cell-based, human; settings: CEM C7A cells, 100 nM, three day incubation
Procedure: The CEM-C7A cell line is a steroid sensitive clone of the CCRF-CEM cell line (ECACC 85112105). This is a T lymphoblastoid cell line with functional endogenous GR.
Apoptosis (programmed cell death) is mediated by a protein called Bax the transcription of which is primarily controlled by the GR in a ligand dependant manner. To measure the ability of a GR ligand to effect apoptosis a suitable cell line was incubated with ligand and a viable cell count was performed after three days.
CEM-C7A cells were plated out on to a 96well plate at 5×10^5/well. The steroids of FIGS. 1 and 2A were added immediately to generate a final concentration of 100 nM. After a three day incubation the live cell number in each well was assessed using Celltiter 96 Aqueous Non-Radioactive Cell Proliferation Assay (Promega). This assay is a calorimetric method for determining the number of viable cells in proliferation or chemosensitivity assays.
Briefly, the assay is composed of solutions of a novel tetrazolium compound (3-(4,5-dimethylthiazol-2-yl)-5-(3-carboxymethoxyphenyl)-2-(4-sulfophenyl)-2H-tetrazolium, MTS) and an electron coupling reagent (phenazine methosulfate; PMS). MTS is bioreduced by cells into a formazan product that is soluble in tissue culture medium. The absorbance of the formazan at 490 nm can be measured directly from 96 well assay plates without additional processing. The conversion of MTS into aqueous, soluble formazan is accomplished by dehydrogenase enzymes found in metabolically active cells. The quantity of formazan product as measured by the amount of 490 nm absorbance is directly proportional to the number of living cells in culture.

[1] = target: T1, progesterone receptor (PRB) (Homo sapiens, UniProt P06401); experiment: Progestogen activity assay using progesterone receptor transactivation; format: cell-based; settings: 100 nM; for PRB reporter gene activation: AH3-luc reporter, COS7
T1 construct: expressed in transfected cells; host or cells: COS 7
T1 sequence (P06401 1-933): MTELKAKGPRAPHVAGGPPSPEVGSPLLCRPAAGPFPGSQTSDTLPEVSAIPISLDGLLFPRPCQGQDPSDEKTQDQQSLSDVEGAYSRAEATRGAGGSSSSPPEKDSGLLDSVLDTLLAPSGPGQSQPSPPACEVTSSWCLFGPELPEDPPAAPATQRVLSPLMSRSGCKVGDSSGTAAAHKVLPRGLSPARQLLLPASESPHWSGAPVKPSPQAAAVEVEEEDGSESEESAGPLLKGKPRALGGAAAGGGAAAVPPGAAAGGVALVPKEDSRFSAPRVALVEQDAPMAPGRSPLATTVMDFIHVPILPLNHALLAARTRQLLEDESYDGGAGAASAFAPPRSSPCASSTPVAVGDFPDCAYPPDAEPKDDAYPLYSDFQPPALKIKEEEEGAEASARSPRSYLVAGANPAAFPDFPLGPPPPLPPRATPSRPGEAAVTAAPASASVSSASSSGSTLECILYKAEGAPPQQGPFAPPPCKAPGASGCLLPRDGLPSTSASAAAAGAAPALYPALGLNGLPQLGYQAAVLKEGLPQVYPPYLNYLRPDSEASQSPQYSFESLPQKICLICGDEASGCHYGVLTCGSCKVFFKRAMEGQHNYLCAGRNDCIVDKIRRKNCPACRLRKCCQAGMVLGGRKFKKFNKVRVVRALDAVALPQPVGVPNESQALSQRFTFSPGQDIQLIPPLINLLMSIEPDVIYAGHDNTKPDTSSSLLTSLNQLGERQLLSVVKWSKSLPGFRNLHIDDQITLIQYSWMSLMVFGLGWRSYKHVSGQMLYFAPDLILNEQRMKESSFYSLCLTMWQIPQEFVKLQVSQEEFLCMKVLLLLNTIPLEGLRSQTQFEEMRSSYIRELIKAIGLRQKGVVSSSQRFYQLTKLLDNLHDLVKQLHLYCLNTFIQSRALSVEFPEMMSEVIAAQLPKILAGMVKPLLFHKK
Excerpt: As the GR LBD has strong homology with the PR LBD there is a chance that any of the tested steroids of FIGS. 1 and 2A that activate one of these receptors may also activate the other. The presence of illegitimate progestogen activity associated with the steroids of FIGS. 1 and 2A was examined using a transactivation assay with the PR instead of the GR.
The PR was artificially expressed in a cell line lacking endogenous PR and a GRE “driving” a luciferase reporter gene was used to measure ligand dependent activation.
COS7 cells were transfected with 1 μg pSEO-PRB and 3 μg AH3-Luc per 10 cm tissue culture dish. The cells were plated out in to 24 well plates after transfection and the steroids of FIGS. 1 and 2A were added immediately to generate a final concentration of 100 nM. After 18 hour incubation the cells were lysed and a luciferase assay was performed.

| Structure (SMILES) | induction of apoptosis (CEM-C7A cells) | PRB reporter gene activation [1] | PRB activation relative to the activation generated by progesterone [1] [%] |
| --- | --- | --- | --- |
| CC1CC2C3CCC4=CC(=O)C=CC4(C)C3(F)C(O)CC2(C)C12OC(C)(C)OCC2=O (stereo not drawn) [Compound A] | most potent inducers of apoptosis | – | – |
| Cc1ccc(NC(=O)C2(O)C(C)CC3C4CCC5=CC(=O)C=CC5(C)C4(F)C(O)CC32C)cc1 (stereo not drawn) [Compound O] | – | slightly increased reporter gene activation compared to that of dexamethasone | – |
| CC1CC2C3CCC4=CC(=O)C=CC4(C)C3(F)C(O)CC2(C)C1(O)C(=O)NCCCO (stereo not drawn) [L] | – | slightly increased reporter gene activation compared to that of dexamethasone | ~40 |
| CCCNC(=O)C1(O)C(C)CC2C3CCC4=CC(=O)C=CC4(C)C3(F)C(O)CC21C (stereo not drawn) [Compound G] | apoptosis was induced | – | – |
| CCCOC(=O)C1(O)C(C)CC2C3CCC4=CC(=O)C=CC4(C)C3(F)C(O)CC21C (stereo not drawn) [R] | – | slightly increased reporter gene activation compared to that of dexamethasone | – |
| CCCCCCNC(=O)OCC(=O)C1(O)C(C)CC2C3CCC4=CC(=O)C=CC4(C)C3(F)C(O)CC21C (stereo not drawn) [Compound T] | – | slightly increased reporter gene activation compared to that of dexamethasone | – |
| CC1CC2C3CCC4=CC(=O)C=CC4(C)C3(F)C(O)CC2(C)C1(O)C(=O)NCCC(=O)O (stereo not drawn) [Q] | not | slightly increased reporter gene activation compared to that of dexamethasone | – |
